From US9464064B2, “HCV helicase inhibitors and methods of use thereof” (University of Kansas, priority 2011, dated 2016)

Target: T1, HCV NS3 helicase NS3h_1b(con1) (Hepatitis C virus genotype 1b, UniProt Q9WMX2)
T1 construct: truncated C-terminally His-tagged NS3 proteins lacking the N-terminal protease, called NS3h; His-tag (C); made in house
Experiment: MBHA screen of NCI mechanistic set library at 20 μM (percent inhibition, compound interference)
Assay type: biochemical
Settings: compounds at 20 μM; for Inh. (%) (Inhibition): calculated from Equation 1
Summary of the method: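 Molecular beacon-based DNA unwinding assay; compounds screened at 20 μM in triplicate, with DMSO-only negative and 500 nM dT20 positive controls. Fluorescence (ex 643/em 670 nm) was read before and 30 min after adding ATP to 1 mM. Percent inhibition came from the change relative to DMSO controls; interference from pre-ATP fluorescence versus DMSO controls.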

[1] = assay interference calculated with Equation 2 (fluorescence vs DMSO-only controls before ATP)
[2] = MBHA with DNA substrate, assay interference calculated with Equation 2

T1 sequence (Q9WMX2 1192-1657): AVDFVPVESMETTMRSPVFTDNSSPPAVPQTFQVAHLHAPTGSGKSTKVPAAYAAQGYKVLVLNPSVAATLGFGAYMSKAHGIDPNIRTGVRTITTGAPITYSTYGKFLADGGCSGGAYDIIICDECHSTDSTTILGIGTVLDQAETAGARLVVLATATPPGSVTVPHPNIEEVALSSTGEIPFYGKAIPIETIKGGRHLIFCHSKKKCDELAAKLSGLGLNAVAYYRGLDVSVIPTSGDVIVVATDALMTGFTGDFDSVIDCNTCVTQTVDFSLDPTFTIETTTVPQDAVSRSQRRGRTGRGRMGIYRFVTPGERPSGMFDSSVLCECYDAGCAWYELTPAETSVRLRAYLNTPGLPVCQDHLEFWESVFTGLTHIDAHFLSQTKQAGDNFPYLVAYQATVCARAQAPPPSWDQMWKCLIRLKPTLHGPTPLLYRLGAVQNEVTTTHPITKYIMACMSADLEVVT

SMILES	Inh. (%) (Inhibition) (MBHA with a DNA substrate)	Int.* (Ratio) (Interference) [1]	Int.* (Ratio) (Interference) [2]	Inh. (%) (Inhibition) (MBHA with DNA substrate)
COc1nc(N)nc2nc[nH]c12 [Compound 37364]	–	–	1.01	16.5
NC1(C(=O)O)CCCC1 [Compound 1026]	9.0	0.90	–	–
BrCCC[P+](c1ccccc1)(c1ccccc1)c1ccccc1.[Br-] [Compound 84074]	−31.4	1.11	–	–
O=c1ccc2ccc(CBr)cc2o1 [Compound 99027]	10.1	0.93	–	–
CN1CCC23c4ccccc4NC1C21CCN(C)C3Nc2ccccc21 [Compound 99016]	–	–	1.10	−8.6
CC(C)(O)C=CC(=O)C(C)(O)C1C(O)CC2(C)C3CC=C4C(C=C(O)C(=O)C4(C)C)C3(C)C(=O)CC12C (stereo not drawn) [Compound 521777]	–	–	0.90	5.8
C[C@@H]1C[C@H]2CC[C@H](O2)[C@H](C)C(=O)O[C@@H](C)C[C@@H]2CC[C@@H](O2)[C@@H](C)C(=O)O[C@H](C)C[C@H]2CC[C@H](O2)[C@H](C)C(=O)O[C@@H](C)C[C@@H]2CC[C@@H](O2)[C@@H](C)C(=O)O1 [Compound 52141]	–	–	0.83	−11.6
Nc1nc(N)c(N=Nc2ccccc2)c(=O)[nH]1 [Compound 5200]	7.0	1.02	–	–
CC(C)(Br)C(=O)C(Br)Br [Compound 1027]	7.0	0.91	–	–

Now from value to compound:

Inh. (%) (Inhibition) (MBHA with a DNA substrate)	Int.* (Ratio) (Interference) [1]	Int.* (Ratio) (Interference) [2]	Inh. (%) (Inhibition) (MBHA with DNA substrate)	SMILES
−23.4	1.02	–	–	COC(=O)[C@@H]1[C@H](O)[C@H](C)[C@H](O)[C@H](C)/C=C\C=C(/C)C(=O)Nc2c(C)c(OC(C)=O)c3c(c2O)C(=O)C(C)=C2OCOC(=C23)/C(C)=C/[C@@](C)(O)[C@H](O)[C@@H](C)[C@H]1OC(C)=O [Compound 156215]
–	–	0.87	−13.8	CC1C(Oc2c(-c3ccc(O)c(O)c3)oc3c(O)cc(O)cc3c2=O)OC(O)C(O)C1O (stereo not drawn) [Compound 167410]
–	–	0.46	−1.7	O=C(O)/C=C\C(=O)O.[N-]=[N+]=Nc1ccc2c(c1)Sc1ccccc1N2CCCCN1CCN(Cc2ccc(C(=O)c3ccccc3)cc2)CC1 [Compound 676963]
–	–	0.44	6.1	Cl.O=C1C=CC(=O)c2c(O)c(N3CCN(CCOCCO)CC3)c(Br)c(O)c21 [Compound 659999]
–	–	1.15	0.2	O=c1cnn(C2OC(CO)C(O)C2O)c(=S)[nH]1 (stereo not drawn) [Compound 146268]
–	–	1.03	−11.4	Cc1ccc(S(=O)(=O)c2ccccc2[N+](=O)[O-])cc1 [Compound 627708]
–	–	0.95	−13.8	CN1c2c(nc(N)[nH]c2=O)NCC1CCNc1ccc(C(=O)N[C@@H](CCC(=O)[O-])C(=O)[O-])cc1.[Na+].[Na+] (stereo partly drawn) [Compound 139490]
–	–	0.38	45.1	CN(C)c1ccc(C=c2c3ccccc3n3c2cc(-c2ccc(Cl)cc2)[n+]3C)cc1.O=S(=O)([O-])C(F)(F)F [Compound 699479]
7.0	0.94	–	–	Nc1ncnc2c([C@@H]3O[C@H](CO)[C@@H](O)[C@H]3O)c[nH]c12 [Compound 352890]
–	–	0.82	25.5	CC(=O)C(N1CCCCC1)C(O)(C(F)(F)F)C(F)(F)F (stereo not drawn) [Compound 664327]
−3.7	1.08	–	–	CC[C@H](C)C(=O)O[C@H]1CCC=C2C=C[C@H](C)[C@H](CC[C@@H]3C[C@@H](O)CC(=O)O3)[C@H]21 [Compound 281245]
–	–	0.89	1.3	O=C(CCc1ccccc1)On1nnc2ccccc2c1=O [Compound 630374]
